Literature values as cited in paper PMC3652662 (Journal of molecular recognition : JMR, 2009).

System: HIV-1YU2 gp120
Conditions: SPR direct binding, HIV-1 Env YU2 (clade B) gp120; ref Gopi et al. (2008)

For RINNIPWSEAMM [Peptide 12p1], the ka is listed as 13600 M⁻¹ s⁻¹.
